Reference: patent US9585840B1, “Redox active cerium oxide nanoparticles and associated methods” (University of Central Florida Research Foundation, Inc., priority 2009, dated 2017)
Blank lines part the entries; values can stand above or below the molecule they belong to.

How the values were obtained:
SCL-1 cells [1] = assay: Oxidized (carbonylated) proteins, Oxyblot, tumor cells; assay type: cell-based, human; settings: 250 μM H2O2 for 1 h
Method: Dermal fibroblasts or tumor cells were grown to subconfluence on tissue culture dishes. After removal of serum-containing medium, HDF were cultured in CM^HDF and either mock-treated or pretreated for 40 h with 150 μM CeO2 nanoparticles prior to addition of 10 ng rTGFβ1/ml for additional 8 h. Tumor cells were mock-treated or treated with 150 μM CNP for 16 h. As positive control, the cells were treated with 250 μM H2O2 for 1 h. Thereafter, cells were lysed and carbonyl groups of oxidized proteins were detected with the OxyBlot™ Protein Oxidation Detection Kit, following the manufacturer's protocol. Briefly, the protein concentration was determined by using a modified Lowry method (Bio-Rad DC). The protein amounts of the samples were aligned. 5 μg of this cell lysate was incubated with 2,4-dinitrophenyl (DNP) hydrazine to form the DNP hydrazone derivatives. Labeled proteins were separated by SDS-PAGE and immunostained using rabbit anti-DNP antiserum (1:500) and goat anti-rabbit IgG conjugated to horseradish peroxidase (1:2000). Blots were developed by enhanced chemiluminescence.

SCL-1 cells [2] = assay: Intracellular ROS, DCF fluorescence, tumor cells; assay type: cell-based, human; settings: 250 μM H2O2, technical control; data not shown
Method: Generation of ROS was determined using 2′,7′-Dichlorodihydrofluorescein diacetate (H2DCF-DA), a dye that diffuses across the lipid membranes into cells and is subsequently oxidized by intracellular ROS forming the highly fluorescent DCF. Subconfluent HDF and SCL-1 tumor cells were exposed to 50 μM or 150 μM CNP in serum-free DMEM in 24-well plates. Untreated subconfluent SCL-1 cells were used as negative controls. Medium was substituted after 24 h by 100 μM H2DCF-DA containing Hanks Balanced Salt Solution (HESS). DCF fluorescence was detected at an excitation wavelength of 485 nm and emission wavelength of 520 nm in 15 minutes intervals in a FLUOstar OPTIMA plate reader (BMG Labtech, Offenburg, Germany). Mean fluorescence intensities and standard error of mean were determined for each reading point by using the statistical software Prism 3.0 (GraphPad, San Diego, Calif., USA).

αSMA = assay: TGFβ1-mediated αSMA protein expression in human dermal fibroblasts, western blot; assay type: cell-based; settings: HDF; for TGFβ1-triggered upregulation of αSMA protein levels: NAC 5.0 mM 4 h or Na2SeO3 0.5 μM 24 h pretreatment, rTGFβ1 5 ng/ml, 48 h after growth factor
Method: Human dermal fibroblasts (HDF) were established by outgrowth from foreskin biopsies of healthy human donors with an age of 3-6 years. Cells were used in passages 2-12, corresponding to cumulative population doubling levels of 3-27 [15]. Dermal fibroblasts and the squamous carcinoma cell line SCL-1, originally derived from the face of a person (generously provided by Prof. Dr Norbert Fusenig, DKFZ Heidelberg, Germany), were cultured as described. Myofibroblasts (MF) were generated by treatment of HDFs with different concentrations of recombinant TGFβ1 (5 ng/ml) for 48 h in HDF conditioned medium (CMHDF).
SDS-PAGE was performed according to the standard protocols published elsewhere with minor modifications. Briefly, cells were lysed after incubation with rTGFβ1 in 1% SDS with 1:1000 protease inhibitor cocktail (Sigma; Taufkirchen, Germany). After sonication, the protein concentration was determined by using a modified Lowry method (Bio-Rad DC). 2×SDS-PAGE sample buffer (1.5 M Tris-HCl pH 6.8, 6 ml 20% SDS, 30 ml glycerol, 15 ml β-mercaptoethanol and 1.8 mg bromophenol blue was added, and after heating, the samples (10 μg total protein/lane) were applied to 10% (w/v) SDS-polyacrylamide gels. After electroblotting, immunodetection was carried out (1:1000 dilution of primary antibodies (mouse monoclonal anti-SMA and tubulin), 1:20000 dilution of anti-mouse antibody conjugated to HRP). Antigen-antibody complexes were visualized by an enhanced chemiluminescence system. Alpha-tubulin was used as internal control for equal loading.

HIF-1 [3] = assay: HIF-1 protein expression, western blot, tumor cells; assay type: cell-based, human; settings: SCL-1; 100 μM cobalt chloride; 4 h
HIF-1 [4] = assay: HIF-1 protein expression, western blot, fibroblasts; assay type: cell-based, human; settings: HDF; 100 μM cobalt chloride; 4 h
αSMA mRNA = assay: αSMA mRNA, quantitative real-time RT-PCR in human dermal fibroblasts; assay type: cell-based; settings: HDF; 24 h after treatment; normalised to HPRT1
Method: Total RNA was isolated and transcribed into cDNA as described. Expression of mRNA was analyzed by real-time RT-PCR using a LightCycler system (Roche; Mannheim, Germany) as described. Real-time RT-PCR was performed with 40 ng cDNA in glass capillaries containing LightCycler FastStart DNA Master SYBR Green I Reaction Mix (Roche), 2 mM MgCl2 and 1 μM of primers. Quantitation of the PCR amplicons was performed using the LightCycler Software. Hypoxanthine phosphoribosyltransferase (HPRT1) was used as internal normalization control.

[5] = mouse, in vivo, iv, 0.5 mg/kg
Method: Eight-week-old, CD-1 mice were divided into two groups. Controls were given weekly doses of 100 μl sterile PBS only by intravenous (IV) administration. The nanoceria group received five doses (one dose a week) of 0.5 mg/kg of nanoceria suspended in 100 μl of sterile saline (IV). Both groups were sacrified on the sixth week. Skin tissue from the back of each animal was excised and hair removed. The tissue was patted dry, weighed and placed in 70% nitric acid overnight to start the digestion process. Samples were then microwave digested. The temperature was ramped to 200° C. over 20 min and held there for another 20 min. Samples were then boiled down to less than 1 ml each and reconstituted in water to an exact volume of 10 ml. Cerium levels were assessed using inductively coupled plasma mass spectroscopy (ICP-MS).

Molecule: OO [H2O2, Hydrogen peroxide]
oxidized proteins, positive control (SCL-1 cells [1]): increase in oxidized proteins
intracellular ROS level (SCL-1 cells [2]): further increased

Molecule: CC(=O)N[C@@H](CS)C(=O)O [NAC, N-acetyl-L-cysteine]
TGFβ1-triggered upregulation of αSMA protein levels (αSMA): completely prevented

Molecule: [Cl][Co][Cl] [cobalt chloride]
HIF-1 protein levels compared to mock-treated cells (HIF-1 [3]): significant increase
HIF-1 protein expression (HIF-1 [4]): not affected

Molecule: O=[Se]([O-])[O-].[Na+].[Na+] [selenite, sodium selenite]
TGFβ1-triggered upregulation of αSMA protein levels (αSMA): significantly lowered

Molecule: TGFβ1: Recombinant human TGFβ1 from R&D Systems, stimulus for myofibroblast formation
αSMA protein amount compared with mock-treated control cells (αSMA; rTGFβ1 5 ng/ml for 8 to 48 h, starting at 16 h post treatment): significant time-dependent increase
increase in αSMA steady-state mRNA levels compared to mock-treated controls (αSMA mRNA): 10 fold

cell morphology (human dermal fibroblasts): No change in morphology
increase in the amount of CeO2 per gram skin tissue vs mock-treated mice [5]: up to 8 fold
Molecule: cerium oxide nanoparticles [CNP]
